From ChEMBL document CHEMBL1158599, “(2S,4S)-1-[2-(1,1-dimethyl-3-oxo-3-pyrrolidin-1-yl-propylamino)acetyl]-4-fluoro-pyrrolidine-2-carbonitrile: a potent, selective, and orally bioavailable dipeptide-derived inhibitor of dipeptidyl peptidase IV” (Bioorg Med Chem Lett, 2010)
pIC50: −log10 of the molar value.

Legend:
Dipeptidyl peptidase 4 [1] = target: T1, Dipeptidyl peptidase 4 (Homo sapiens, UniProt P27487)
Dipeptidyl peptidase 8 = Dipeptidyl peptidase 8 (Homo sapiens, UniProt Q6V1X1)
Dipeptidyl peptidase 9 [2] = target: T2, Dipeptidyl peptidase 9 (Homo sapiens, UniProt Q86TI2); assay: Inhibition of DPP9
Target sequence in this assay (Q86TI2 whole entry): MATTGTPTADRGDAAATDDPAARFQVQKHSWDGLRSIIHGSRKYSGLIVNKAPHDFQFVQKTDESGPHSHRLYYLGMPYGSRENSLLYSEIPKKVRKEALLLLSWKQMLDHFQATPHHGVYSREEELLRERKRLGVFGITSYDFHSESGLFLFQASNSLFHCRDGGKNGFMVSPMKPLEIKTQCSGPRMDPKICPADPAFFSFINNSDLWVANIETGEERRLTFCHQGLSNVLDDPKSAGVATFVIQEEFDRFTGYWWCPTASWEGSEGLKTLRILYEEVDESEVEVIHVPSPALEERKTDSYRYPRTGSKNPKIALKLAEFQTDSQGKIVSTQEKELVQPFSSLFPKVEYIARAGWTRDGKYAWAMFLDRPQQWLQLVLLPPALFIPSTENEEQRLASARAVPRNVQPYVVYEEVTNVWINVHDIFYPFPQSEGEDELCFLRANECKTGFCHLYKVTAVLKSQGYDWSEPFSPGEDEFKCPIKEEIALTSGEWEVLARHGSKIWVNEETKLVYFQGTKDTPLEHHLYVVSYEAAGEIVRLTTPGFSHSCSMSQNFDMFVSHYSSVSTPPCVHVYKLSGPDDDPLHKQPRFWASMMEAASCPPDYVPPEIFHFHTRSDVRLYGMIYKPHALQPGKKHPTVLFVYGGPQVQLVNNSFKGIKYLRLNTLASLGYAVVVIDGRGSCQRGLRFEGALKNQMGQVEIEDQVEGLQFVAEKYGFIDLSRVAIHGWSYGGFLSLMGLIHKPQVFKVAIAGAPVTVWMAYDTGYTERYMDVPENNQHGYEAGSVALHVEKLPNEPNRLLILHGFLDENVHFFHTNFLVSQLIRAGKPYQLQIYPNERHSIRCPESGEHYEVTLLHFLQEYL

Dipeptidyl peptidase 4 [3] = target: T1, Dipeptidyl peptidase 4; remark: listed apart in the source
Rattus norvegicus [4] = species: Rattus norvegicus; assay: animal or person; conditions: Plasma, po, 0.5 h, read-out: INH
Rattus norvegicus [5] = species: Rattus norvegicus; assay: animal or person; conditions: Plasma, po, 8 h, read-out: INH
Dipeptidyl peptidase 4 [6] = target: T1, Dipeptidyl peptidase 4; remark: listed apart in the source
Dipeptidyl peptidase 2 = Dipeptidyl peptidase 2 (Homo sapiens, UniProt Q9UHL4); assay: Inhibition of DPP2
Prolyl endopeptidase FAP = target: T3, Prolyl endopeptidase FAP (Homo sapiens, UniProt Q12884); assay: Inhibition of FAP
T3 sequence (Q12884 whole entry): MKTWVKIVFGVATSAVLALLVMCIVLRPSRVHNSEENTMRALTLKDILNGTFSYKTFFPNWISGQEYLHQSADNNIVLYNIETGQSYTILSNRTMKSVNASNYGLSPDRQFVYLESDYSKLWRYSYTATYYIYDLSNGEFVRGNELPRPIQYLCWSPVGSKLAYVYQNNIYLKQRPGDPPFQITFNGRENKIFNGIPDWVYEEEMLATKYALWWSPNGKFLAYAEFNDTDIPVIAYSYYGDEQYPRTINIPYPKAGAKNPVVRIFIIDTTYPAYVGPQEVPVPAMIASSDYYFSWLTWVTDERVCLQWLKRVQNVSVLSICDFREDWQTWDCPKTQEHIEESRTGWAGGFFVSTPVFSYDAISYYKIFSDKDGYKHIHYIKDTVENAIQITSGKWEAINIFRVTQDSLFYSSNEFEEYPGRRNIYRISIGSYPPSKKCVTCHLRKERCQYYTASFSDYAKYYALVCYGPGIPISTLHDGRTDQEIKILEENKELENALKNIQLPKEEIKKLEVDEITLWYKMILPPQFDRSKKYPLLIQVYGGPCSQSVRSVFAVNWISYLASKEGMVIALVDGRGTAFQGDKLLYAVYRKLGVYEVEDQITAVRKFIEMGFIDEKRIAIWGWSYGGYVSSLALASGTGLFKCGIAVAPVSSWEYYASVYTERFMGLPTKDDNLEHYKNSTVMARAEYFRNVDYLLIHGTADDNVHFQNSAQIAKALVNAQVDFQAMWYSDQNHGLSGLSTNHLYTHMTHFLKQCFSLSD

Dipeptidyl peptidase 9 [7] = target: T2, Dipeptidyl peptidase 9; assay: Inhibition of DPP9 at 20 uM
Target sequence in this assay (Q86TI2 2-863 limits assumed): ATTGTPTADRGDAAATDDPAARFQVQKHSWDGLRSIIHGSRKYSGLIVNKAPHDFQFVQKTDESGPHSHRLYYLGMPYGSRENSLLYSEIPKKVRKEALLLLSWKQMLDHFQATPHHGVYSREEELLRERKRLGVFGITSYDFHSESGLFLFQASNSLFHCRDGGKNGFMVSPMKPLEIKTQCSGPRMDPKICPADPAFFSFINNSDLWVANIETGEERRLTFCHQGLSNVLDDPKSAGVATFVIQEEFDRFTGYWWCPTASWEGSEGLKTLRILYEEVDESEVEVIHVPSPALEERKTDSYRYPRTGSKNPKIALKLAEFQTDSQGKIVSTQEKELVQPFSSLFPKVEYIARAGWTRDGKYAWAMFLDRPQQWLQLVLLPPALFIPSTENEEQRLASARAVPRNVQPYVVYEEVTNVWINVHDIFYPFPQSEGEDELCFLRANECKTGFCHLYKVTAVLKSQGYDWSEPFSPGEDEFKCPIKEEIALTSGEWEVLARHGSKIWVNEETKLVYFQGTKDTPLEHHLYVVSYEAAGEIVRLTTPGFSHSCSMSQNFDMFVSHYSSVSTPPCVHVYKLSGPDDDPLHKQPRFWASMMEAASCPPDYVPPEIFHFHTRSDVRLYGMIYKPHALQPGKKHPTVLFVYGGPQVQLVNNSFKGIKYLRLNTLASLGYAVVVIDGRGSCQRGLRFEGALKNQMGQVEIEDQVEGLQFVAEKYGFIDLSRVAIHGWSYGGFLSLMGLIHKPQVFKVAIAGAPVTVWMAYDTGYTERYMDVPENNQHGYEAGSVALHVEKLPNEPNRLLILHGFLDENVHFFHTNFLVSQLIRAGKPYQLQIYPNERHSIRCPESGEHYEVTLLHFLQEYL

Mus musculus [8] = assay: Antihyperglycemic activity in C57BL/6J mouse assessed as reduction in blood glucose AUC at 3 mg/kg, po administered 30 mins before glucose challenge; assay type: functional; parameters: scale not given: the % may be the effect or the level left
[9] = Oral bioavailability in rat; assay type: ADME, organism-based; conditions: in vivo
[10] = Oral bioavailability in dog; assay type: ADME, organism-based, Canis lupus familiaris; conditions: in vivo
[11] = target: Beta-secretase 1 (Homo sapiens) (UniProt P56817); assay: Inhibition of beta secretase at 10 uM
Beta-secretase 1 (Homo sapiens), sequence (P56817 whole entry): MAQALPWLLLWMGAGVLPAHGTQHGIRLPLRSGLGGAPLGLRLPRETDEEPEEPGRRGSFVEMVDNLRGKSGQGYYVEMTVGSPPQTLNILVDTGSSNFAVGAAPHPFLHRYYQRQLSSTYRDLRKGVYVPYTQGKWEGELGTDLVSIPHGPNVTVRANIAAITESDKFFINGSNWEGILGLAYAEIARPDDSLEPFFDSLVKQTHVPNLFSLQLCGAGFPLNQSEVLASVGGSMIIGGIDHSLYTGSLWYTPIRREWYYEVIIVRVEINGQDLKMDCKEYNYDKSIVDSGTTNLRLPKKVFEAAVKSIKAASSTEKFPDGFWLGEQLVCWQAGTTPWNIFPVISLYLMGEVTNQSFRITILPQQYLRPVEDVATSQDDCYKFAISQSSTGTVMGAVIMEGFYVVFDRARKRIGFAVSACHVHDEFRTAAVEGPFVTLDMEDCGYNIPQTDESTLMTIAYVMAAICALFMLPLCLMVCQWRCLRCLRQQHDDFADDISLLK

Caspase-1 (Homo sapiens) = target: T4, Caspase-1 (Homo sapiens) (UniProt P29466); assay: Inhibition of caspase1 at 10 uM
T4 sequence (whole entry): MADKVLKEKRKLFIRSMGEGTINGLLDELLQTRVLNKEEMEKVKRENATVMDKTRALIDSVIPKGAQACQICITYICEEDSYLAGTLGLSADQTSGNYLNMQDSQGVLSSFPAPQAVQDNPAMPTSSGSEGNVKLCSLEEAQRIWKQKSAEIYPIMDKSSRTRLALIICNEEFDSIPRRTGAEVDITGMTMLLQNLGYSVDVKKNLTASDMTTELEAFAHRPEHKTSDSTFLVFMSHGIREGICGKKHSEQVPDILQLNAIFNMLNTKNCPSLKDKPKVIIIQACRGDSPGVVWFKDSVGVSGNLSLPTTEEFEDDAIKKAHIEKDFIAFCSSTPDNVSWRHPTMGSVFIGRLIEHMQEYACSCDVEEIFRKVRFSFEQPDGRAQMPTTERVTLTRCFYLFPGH

[12] = target: T5, Caspase-10 (Homo sapiens) (UniProt Q92851); assay: Inhibition of caspase 10 at 10 uM
T5 sequence (whole entry): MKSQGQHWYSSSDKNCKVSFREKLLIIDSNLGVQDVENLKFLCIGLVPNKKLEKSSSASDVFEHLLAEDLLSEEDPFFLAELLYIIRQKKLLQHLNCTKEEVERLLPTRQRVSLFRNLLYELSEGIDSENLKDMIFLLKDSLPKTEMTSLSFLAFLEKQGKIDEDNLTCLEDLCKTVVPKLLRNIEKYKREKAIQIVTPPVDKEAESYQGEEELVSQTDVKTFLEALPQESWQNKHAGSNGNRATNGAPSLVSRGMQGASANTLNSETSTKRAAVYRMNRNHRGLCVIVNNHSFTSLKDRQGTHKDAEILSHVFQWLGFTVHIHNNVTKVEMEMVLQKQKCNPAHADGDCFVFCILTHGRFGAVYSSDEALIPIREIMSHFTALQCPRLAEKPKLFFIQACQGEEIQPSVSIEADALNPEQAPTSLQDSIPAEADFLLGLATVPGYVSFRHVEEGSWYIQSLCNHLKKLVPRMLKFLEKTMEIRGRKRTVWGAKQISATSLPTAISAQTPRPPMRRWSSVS

[13] = target: Cathepsin B (Homo sapiens) (UniProt P07858); assay: Inhibition of cathepsin B at 10 uM
[14] = target: T6, Pro-cathepsin H (Homo sapiens) (UniProt P09668); assay: Inhibition of cathepsin H at 10 uM
T6 sequence (whole entry): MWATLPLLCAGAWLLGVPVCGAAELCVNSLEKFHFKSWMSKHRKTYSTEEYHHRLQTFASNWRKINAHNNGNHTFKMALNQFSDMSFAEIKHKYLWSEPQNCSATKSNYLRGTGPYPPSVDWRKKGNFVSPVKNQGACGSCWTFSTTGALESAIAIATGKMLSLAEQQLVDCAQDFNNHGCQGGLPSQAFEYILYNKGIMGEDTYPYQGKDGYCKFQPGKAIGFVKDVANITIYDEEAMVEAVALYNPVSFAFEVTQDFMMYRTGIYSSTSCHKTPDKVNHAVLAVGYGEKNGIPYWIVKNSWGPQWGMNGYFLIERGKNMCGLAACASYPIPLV

[15] = target: Coagulation factor X (Homo sapiens) (UniProt P00742); assay: Inhibition of factor 10a at 10 uM
[16] = target: Prothrombin (Homo sapiens) (UniProt P00734); assay: Inhibition of thrombin at 10 uM
[17] = Inhibition of trypsin at 10 uM
[18] = target: Voltage-gated inwardly rectifying potassium channel KCNH2 (Homo sapiens, UniProt Q12809); assay: Inhibition of human ERG
Voltage-gated inwardly rectifying potassium channel KCNH2, sequence (Q12809 whole entry): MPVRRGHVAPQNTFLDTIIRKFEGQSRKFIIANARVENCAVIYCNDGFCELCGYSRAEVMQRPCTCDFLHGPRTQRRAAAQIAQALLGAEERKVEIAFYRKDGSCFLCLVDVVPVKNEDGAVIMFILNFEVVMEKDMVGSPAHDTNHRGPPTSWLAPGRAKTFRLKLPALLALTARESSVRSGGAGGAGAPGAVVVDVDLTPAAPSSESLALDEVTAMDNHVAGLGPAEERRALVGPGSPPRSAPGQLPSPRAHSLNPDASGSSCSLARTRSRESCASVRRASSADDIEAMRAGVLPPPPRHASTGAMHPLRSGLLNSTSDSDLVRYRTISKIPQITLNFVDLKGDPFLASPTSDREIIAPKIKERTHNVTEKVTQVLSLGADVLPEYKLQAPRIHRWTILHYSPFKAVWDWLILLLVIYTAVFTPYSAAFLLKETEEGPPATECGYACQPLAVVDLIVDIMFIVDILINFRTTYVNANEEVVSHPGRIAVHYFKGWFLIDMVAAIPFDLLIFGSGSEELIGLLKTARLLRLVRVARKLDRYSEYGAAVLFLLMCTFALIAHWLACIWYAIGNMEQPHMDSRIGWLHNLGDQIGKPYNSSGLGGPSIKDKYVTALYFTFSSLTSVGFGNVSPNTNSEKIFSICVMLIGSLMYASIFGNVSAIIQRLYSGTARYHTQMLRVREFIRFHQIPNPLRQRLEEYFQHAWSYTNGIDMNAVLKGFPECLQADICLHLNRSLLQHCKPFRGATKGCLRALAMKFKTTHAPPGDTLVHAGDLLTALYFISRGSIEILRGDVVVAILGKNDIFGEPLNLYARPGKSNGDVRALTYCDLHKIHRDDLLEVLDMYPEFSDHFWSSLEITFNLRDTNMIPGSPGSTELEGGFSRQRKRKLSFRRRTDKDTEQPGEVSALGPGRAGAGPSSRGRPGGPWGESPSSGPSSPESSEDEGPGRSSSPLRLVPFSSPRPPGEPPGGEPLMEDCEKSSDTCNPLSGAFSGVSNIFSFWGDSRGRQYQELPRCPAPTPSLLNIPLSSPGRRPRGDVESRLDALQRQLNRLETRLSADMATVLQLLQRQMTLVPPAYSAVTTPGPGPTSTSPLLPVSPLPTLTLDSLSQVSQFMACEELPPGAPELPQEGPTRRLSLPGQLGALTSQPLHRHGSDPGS

[19] = Inhibition of L-type calcium channel; conditions: concentration not given here
[20] = Inhibition of sodium channel site 2; conditions: concentration not given here
Mus musculus [21] = species: Mus musculus; assay: animal or person; conditions: Plasma, po, 4 h, read-out: INH

Dipeptidyl peptidase 8, sequence (Q6V1X1 whole entry): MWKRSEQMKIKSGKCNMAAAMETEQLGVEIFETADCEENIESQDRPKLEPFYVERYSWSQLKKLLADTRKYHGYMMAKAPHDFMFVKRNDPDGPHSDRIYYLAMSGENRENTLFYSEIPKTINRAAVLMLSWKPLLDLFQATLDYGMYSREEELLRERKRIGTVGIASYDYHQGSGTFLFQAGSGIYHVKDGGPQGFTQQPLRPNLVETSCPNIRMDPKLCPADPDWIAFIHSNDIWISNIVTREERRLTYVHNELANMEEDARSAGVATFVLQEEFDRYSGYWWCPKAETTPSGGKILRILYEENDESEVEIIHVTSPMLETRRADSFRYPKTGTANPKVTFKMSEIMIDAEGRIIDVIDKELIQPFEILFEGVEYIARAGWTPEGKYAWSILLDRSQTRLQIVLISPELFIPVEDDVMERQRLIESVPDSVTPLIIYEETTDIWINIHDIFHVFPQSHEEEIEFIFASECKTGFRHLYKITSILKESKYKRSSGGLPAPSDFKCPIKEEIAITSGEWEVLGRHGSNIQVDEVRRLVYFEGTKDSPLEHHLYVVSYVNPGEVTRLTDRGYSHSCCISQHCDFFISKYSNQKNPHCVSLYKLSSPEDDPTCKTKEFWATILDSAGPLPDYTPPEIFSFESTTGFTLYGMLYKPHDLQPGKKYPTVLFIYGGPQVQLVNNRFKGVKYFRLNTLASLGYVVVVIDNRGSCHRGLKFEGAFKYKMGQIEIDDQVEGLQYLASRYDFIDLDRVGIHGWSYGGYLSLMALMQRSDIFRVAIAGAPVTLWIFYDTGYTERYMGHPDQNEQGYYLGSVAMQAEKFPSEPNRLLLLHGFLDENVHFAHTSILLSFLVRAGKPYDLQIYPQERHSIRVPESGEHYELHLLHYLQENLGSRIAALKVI
T1 sequence (P27487 whole entry): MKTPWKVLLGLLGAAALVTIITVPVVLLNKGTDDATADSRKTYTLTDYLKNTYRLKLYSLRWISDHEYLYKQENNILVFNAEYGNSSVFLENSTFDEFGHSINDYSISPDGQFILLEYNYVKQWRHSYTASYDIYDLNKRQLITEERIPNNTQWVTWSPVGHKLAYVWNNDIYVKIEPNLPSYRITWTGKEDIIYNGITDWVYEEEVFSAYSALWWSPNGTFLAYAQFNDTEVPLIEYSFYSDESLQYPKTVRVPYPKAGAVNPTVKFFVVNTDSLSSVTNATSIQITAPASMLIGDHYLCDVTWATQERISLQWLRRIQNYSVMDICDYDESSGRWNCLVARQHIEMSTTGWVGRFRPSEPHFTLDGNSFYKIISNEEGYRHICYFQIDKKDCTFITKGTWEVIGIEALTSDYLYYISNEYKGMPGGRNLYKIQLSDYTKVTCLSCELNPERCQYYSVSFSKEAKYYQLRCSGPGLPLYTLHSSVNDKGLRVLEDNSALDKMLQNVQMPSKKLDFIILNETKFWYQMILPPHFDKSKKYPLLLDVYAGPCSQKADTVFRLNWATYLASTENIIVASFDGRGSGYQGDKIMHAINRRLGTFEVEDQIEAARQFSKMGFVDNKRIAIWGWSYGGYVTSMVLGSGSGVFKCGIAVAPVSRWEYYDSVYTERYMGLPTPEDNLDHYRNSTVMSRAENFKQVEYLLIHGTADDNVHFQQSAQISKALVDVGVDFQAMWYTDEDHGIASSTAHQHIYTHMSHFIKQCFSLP

Structure (SMILES) | pIC50 (Dipeptidyl peptidase 4 [1]) | pIC50 (Dipeptidyl peptidase 8) | pIC50 (Dipeptidyl peptidase 9 [2]) | inhibition in vivo at 3 mg/kg (Rattus norvegicus [4]) [%] | inhibition in vivo at 3 mg/kg (Rattus norvegicus [5]) [%] | other results
CC(C)(CC(=O)N1CCCCC1)NCC(=O)N1C[C@@H](F)C[C@H]1C#N | 7.57 | < 4.70 | < 4.70 | 86 | 74 | pIC50 (Dipeptidyl peptidase 4 [3]): 7.85
CC(C)(CC(=O)N1CCC(=O)CC1)NCC(=O)N1C[C@@H](F)C[C@H]1C#N | 7.59 | < 4.70 | < 4.70 |  |  | 
CC(C)(CC(=O)N1CCSC1)NCC(=O)N1C[C@@H](F)C[C@H]1C#N | 7.57 | < 4.70 | < 4.70 | 77 | 56 | 
CC(C)(CC(=O)N1CCCCCC1)NCC(=O)N1C[C@@H](F)C[C@H]1C#N | 6.80 | < 4.70 | < 4.70 |  |  | 
CC(C)(CC(=O)N1CC[C@@H](O)C1)NCC(=O)N1C[C@@H](F)C[C@H]1C#N | 7.52 | < 4.70 | < 4.70 | 63 | 15 | pIC50 (Dipeptidyl peptidase 4 [3]): 7.68; pIC50 (Dipeptidyl peptidase 4 [6]): 7.64
CC(C)(CC(=O)N1CC[C@H](O)C1)NCC(=O)N1C[C@@H](F)C[C@H]1C#N | 7.30 | < 4.70 | < 4.70 |  |  | 
CC(C)(CC(=O)N1CCOCC1)NCC(=O)N1C[C@@H](F)C[C@H]1C#N | 7.70 | < 4.70 | < 4.70 | 89 | 59 | pIC50 (Dipeptidyl peptidase 4 [3]): 7.89; pIC50 (Dipeptidyl peptidase 4 [6]): 7.85
CC(C)(CC(=O)Nc1ccccn1)NCC(=O)N1C[C@@H](F)C[C@H]1C#N | 7.72 | < 4.70 | < 4.70 | 87 | 31 | pIC50 (Dipeptidyl peptidase 4 [3]): 7.72; pIC50 (Dipeptidyl peptidase 4 [6]): 7.62
CC(C)(CC(=O)N1CC[C@@H](O)C1)NCC(=O)N1CCC[C@H]1C#N | 6.74 | < 4.70 | < 4.70 |  |  | 
CC(C)(CC(=O)N1CCC[C@H]1CO)NCC(=O)N1C[C@@H](F)C[C@H]1C#N | 7.62 | < 4.70 | < 4.70 |  |  | 
C#C[C@@H]1C[C@H](F)CN1C(=O)CC(C)(C)CC(=O)N[C@H]1C[C@@H]1c1cccc(Cl)c1 | 7.82 | < 4.70 |  | 66 | 30 | pIC50 (Dipeptidyl peptidase 2): < 4.00; pIC50 (Prolyl endopeptidase FAP): < 4.70; inhibition (Dipeptidyl peptidase 9 [7]): 72%; pIC50 (Dipeptidyl peptidase 4 [3]): 6.07; pIC50 (Dipeptidyl peptidase 4 [6]): 6.68
CC(C)(CC(=O)NC1CCCC1)NCC(=O)N1C[C@@H](F)C[C@H]1C#N | 7.54 | < 4.70 | < 4.70 | 81 | 60 | 
CC(C)(CC(=O)N1CCCC1)NCC(=O)N1C[C@@H](F)C[C@H]1C#N [DBPR-108] | 7.82 | < 4.00 | < 4.30 | 82 | 70 | pIC50 (Dipeptidyl peptidase 4 [3]): 8.30; pIC50 (Dipeptidyl peptidase 4 [6]): 8.00; Activity (Mus musculus [8]): 67%; bioavailability [9]: 19%; bioavailability [10]: 68%; inhibition [11]: 3%; inhibition (Caspase-1 (Homo sapiens)): 23%; inhibition [12]: 8%; inhibition [13]: -10%; inhibition [14]: 0%; inhibition [15]: 2%; inhibition [16]: -7%; inhibition [17]: 0%; inhibition (INH) [18]: -6%; inhibition [19]: -9%; inhibition [20]: 1%
COc1ccc(NC(=O)CC(C)(C)NCC(=O)N2C[C@@H](F)C[C@H]2C#N)nc1 | 7.72 | < 4.70 |  | 88 | 41 | inhibition (Dipeptidyl peptidase 9 [7]): 61%; pIC50 (Dipeptidyl peptidase 4 [3]): 7.74
N#C[C@@H]1CCCN1C(=O)CNC12CC3CC(CC(O)(C3)C1)C2 [VILDAGLIPTIN] |  |  |  | 84 | 73 | 
CC(C)(CC(=O)N1CC[C@@H](F)C1)NCC(=O)N1C[C@@H](F)C[C@H]1C#N |  | < 4.70 | < 4.70 |  |  | 
N[C@@H](CC(=O)N1CCn2c(nnc2C(F)(F)F)C1)Cc1cc(F)c(F)cc1F [SITAGLIPTIN] |  |  |  | 30 | 20 | 
CC(C)(CC(=O)N1CCCC1)NCC(=O)N1CCC[C@H]1C#N |  | < 4.70 | < 4.70 |  |  | 
COc1ccc(NC(=O)CC(C)(C)NCC(=O)N2CCC[C@H]2C#N)cc1OC |  | < 4.30 | < 4.70 |  |  | pIC50 (Dipeptidyl peptidase 2): < 4.70; pIC50 (Prolyl endopeptidase FAP): < 4.30
C[C@@H]1CCCN1C(=O)CC(C)(C)NCC(=O)N1C[C@@H](F)C[C@H]1C#N | 7.49 | < 4.70 | < 4.70 | 75 | 48 | 
CCOC(=O)N1CCN(C(=O)CC(C)(C)NCC(=O)N2C[C@@H](F)C[C@H]2C#N)CC1 | 7.20 | < 4.70 | < 4.70 |  |  | 
CC(C)(CC(=O)N1Cc2ccccc2C1)NCC(=O)N1CCC[C@H]1C#N |  |  | < 4.00 |  |  | inhibition in vivo at 18 mg/kg (Mus musculus [21]): > 80%
CC(C)(CC(=O)N1C2CCC1CC2)NCC(=O)N1C[C@@H](F)C[C@H]1C#N | 7.18 | < 4.70 | < 4.70 |  |  | 
CC(C)(CC(=O)N1CC=CCC1)NCC(=O)N1C[C@@H](F)C[C@H]1C#N | 7.74 | < 4.70 |  | 85 | 70 | inhibition (Dipeptidyl peptidase 9 [7]): 50%
CN1CCN(C(=O)CC(C)(C)NCC(=O)N2C[C@@H](F)C[C@H]2C#N)CC1 | 7.03 | < 4.70 |  |  |  | inhibition (Dipeptidyl peptidase 9 [7]): 86%
COc1ccc(NC(=O)CC(C)(C)NCC(=O)N2C[C@@H](F)C[C@H]2C#N)cc1OC | 7.57 | < 4.70 |  | 86 | 18 | inhibition (Dipeptidyl peptidase 9 [7]): 73%
CC(C)(CC(=O)N1CCN(S(C)(=O)=O)CC1)NCC(=O)N1C[C@@H](F)C[C@H]1C#N | 7.62 | < 4.70 | < 4.70 | 64 | 7 | pIC50 (Dipeptidyl peptidase 4 [3]): 7.82
